Assay results taken from ChEMBL document CHEMBL1201862, “PubChem BioAssay data set” (2004).
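Each compound was tested at five concentrations against cells in 96-well plates for 48 hours. The concentration for 50% growth inhibition is given as GI50.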 Calls of active or inactive are those of the source. Cut-off read from the data, not from the text of the source: active = GI50 up to about 1.1 µM and inactive = higher.

Experiments:
Test in all cases: inhibition of tumour cell growth, NCI panel, 48 h
SF-295 = system: SF-295
OVCAR-4 = system: OVCAR-4
DMS-273 = system: DMS-273
Malme-3M = system: Malme-3M
SK-OV-3 = system: SK-OV-3
U-251 = system: U-251
A549 = system: A549
NCI-H522 = system: NCI-H522
UO-31 = system: UO-31
SK-MEL-5 = system: SK-MEL-5
SNB-78 = system: SNB-78
HCT-116 = system: HCT-116
CAKI-1 = system: CAKI-1
IGROV-1 = system: IGROV-1
UACC-62 = system: UACC-62
HCC 2998 = system: HCC 2998
HOP-62 = system: HOP-62
SK-MEL-28 = system: SK-MEL-28
SNB-19 = system: SNB-19
RPMI-8226 = system: RPMI-8226
SW-620 = system: SW-620
DMS-114 = system: DMS-114
MOLT-4 = system: MOLT-4
NCI/ADR-RES = system: NCI/ADR-RES
K562 = system: K562
HOP-92 = system: HOP-92
LOX IMVI = system: LOX IMVI
SN12C = system: SN12C
NCI-H460 = system: NCI-H460
XF498 = system: XF498
HOP-18 = system: HOP-18
SF-539 = system: SF-539
EKVX = system: EKVX
NCI-H226 = system: NCI-H226
OVCAR-8 = system: OVCAR-8
SNB-75 = system: SNB-75
SF-268 = system: SF-268
UACC-257 = system: UACC-257
COLO 205 = system: COLO 205
M19-MEL = system: M19-MEL
HCT-15 = system: HCT-15
NCI-H23 = system: NCI-H23
HL-60 = system: HL-60
RXF 393 = system: RXF 393
SK-MEL-2 = system: SK-MEL-2
HT-29 = system: HT-29
CCRF-CEM = system: CCRF-CEM
KM-20L2 = system: KM-20L2
DLD-1 = system: DLD-1
OVCAR-3 = system: OVCAR-3
KM12 = system: KM12
MCF7 = system: MCF7
OVCAR-5 = system: OVCAR-5
MDA-N = system: MDA-N
MDA-MB-231 = system: MDA-MB-231
BT-549 = system: BT-549
TK-10 = system: TK-10
ACHN = system: ACHN
M14 = system: M14
786-0 = system: 786-0
LXFL 529 = system: LXFL 529
DU-145 = system: DU-145
Hs-578T = system: Hs-578T
T47D = system: T47D
SR = system: SR
MDA-MB-435 = system: MDA-MB-435
A498 = system: A498
PC-3 = system: PC-3

Structure (SMILES): Brc1ccc2[nH]c3c(C4=NCCC4)nccc3c2c1
- GI50 (SF-295): 10600 nM (inactive)
- GI50 (OVCAR-4): 17100 nM (inactive)
- GI50 (DMS-273): 14400 nM (inactive)
- GI50 (Malme-3M): 1910 nM (inactive)
- GI50 (SK-OV-3): 26700 nM (inactive)
- GI50 (U-251): 12500 nM (inactive)
- GI50 (A549): 16300 nM (inactive)
- GI50 (NCI-H522): 9120 nM (inactive)
- GI50 (UO-31): 14800 nM (inactive)
- GI50 (SK-MEL-5): 8470 nM (inactive)
- GI50 (SNB-78): > 100000 nM (inactive)
- GI50 (HCT-116): 9860 nM (inactive)
- GI50 (CAKI-1): 19600 nM (inactive)
- GI50 (IGROV-1): 18700 nM (inactive)
- GI50 (UACC-62): 9730 nM (inactive)
- GI50 (HCC 2998): 12200 nM (inactive)
- GI50 (HOP-62): 11600 nM (inactive)
- GI50 (SK-MEL-28): 16400 nM (inactive)
- GI50 (SNB-19): 21700 nM (inactive)
- GI50 (RPMI-8226): 9270 nM (inactive)
- GI50 (SW-620): 21300 nM (inactive)
- GI50 (DMS-114): 14500 nM (inactive)
- GI50 (MOLT-4): 8450 nM (inactive)
- GI50 (NCI/ADR-RES): 40000 nM (inactive)
- GI50 (K562): 11300 nM (inactive)
- GI50 (HOP-92): > 26900 nM (inactive)
- GI50 (LOX IMVI): 18000 nM (inactive)
- GI50 (SN12C): 19100 nM (inactive)
- GI50 (NCI-H460): 9950 nM (inactive)
- GI50 (XF498): > 39500 nM (inactive)
- GI50 (HOP-18): 10200 nM (inactive)
- GI50 (SF-539): 9530 nM (inactive)
- GI50 (EKVX): 13000 nM (inactive)
- GI50 (NCI-H226): 10200 nM (inactive)
- GI50 (OVCAR-8): 13500 nM (inactive)
- GI50 (SNB-75): 31300 nM (inactive)
- GI50 (SF-268): 16100 nM (inactive)
- GI50 (UACC-257): 16900 nM (inactive)
- GI50 (COLO 205): 23300 nM (inactive)
- GI50 (M19-MEL): 26900 nM (inactive)
- GI50 (HCT-15): 17000 nM
- GI50 (NCI-H23): 24800 nM (inactive)
- GI50 (HL-60): 5790 nM (inactive)
- GI50 (RXF 393): 16300 nM (inactive)
- GI50 (SK-MEL-2): 13900 nM (inactive)
- GI50 (HT-29): 11200 nM (inactive)
- GI50 (CCRF-CEM): 10400 nM (inactive)
- GI50 (KM-20L2): 8170 nM (inactive)
- GI50 (DLD-1): 15500 nM (inactive)
- GI50 (OVCAR-3): 61000 nM (inactive)
- GI50 (KM12): 41500 nM (inactive)
- GI50 (MCF7): 9250 nM (inactive)
- GI50 (OVCAR-5): 6110 nM (inactive)

Structure (SMILES): C#CCN1CCN(C(=S)N/N=C(\C)c2ccccn2)CC1
- GI50 (SF-295): 632 nM (active)
- GI50 (OVCAR-4): 350 nM (active)
- GI50 (MDA-N): 1460 nM (inactive)
- GI50 (DMS-273): < 16.1 nM (active)
- GI50 (Malme-3M): 1000 nM (active)
- GI50 (SK-OV-3): 877 nM (active)
- GI50 (MDA-MB-231): 1280 nM (inactive)
- GI50 (U-251): 18.9 nM (active)
- GI50 (A549): 3120 nM (inactive)
- GI50 (BT-549): 1490 nM (inactive)
- GI50 (NCI-H522): 55.2 nM (active)
- GI50 (UO-31): 634 nM (active)
- GI50 (TK-10): 3280 nM (inactive)
- GI50 (SK-MEL-5): 1360 nM (inactive)
- GI50 (SNB-78): 5370 nM (inactive)
- GI50 (HCT-116): 1 nM (active)
- GI50 (ACHN): 44 nM (active)
- GI50 (M14): 26.3 nM (active)
- GI50 (CAKI-1): 1420 nM (inactive)
- GI50 (IGROV-1): 10 nM (active)
- GI50 (786-0): 72.1 nM (active)
- GI50 (UACC-62): 25.2 nM (active)
- GI50 (HCC 2998): 568 nM (active)
- GI50 (HOP-62): 363 nM (active)
- GI50 (LXFL 529): 1 nM (active)
- GI50 (SK-MEL-28): 1360 nM (inactive)
- GI50 (SNB-19): 2990 nM (inactive)
- GI50 (RPMI-8226): 10 nM (active)
- GI50 (SW-620): 26.2 nM (active)
- GI50 (DMS-114): 10 nM (active)
- GI50 (MOLT-4): 10 nM (active)
- GI50 (NCI/ADR-RES): 10 nM (active)
- GI50 (K562): 10 nM (active)
- GI50 (DU-145): 1480 nM (inactive)
- GI50 (HOP-92): 166 nM (active)
- GI50 (LOX IMVI): 10 nM (active)
- GI50 (Hs-578T): 1740 nM (inactive)
- GI50 (SN12C): 232 nM (active)
- GI50 (NCI-H460): 619 nM (active)
- GI50 (XF498): 10 nM (active)
- GI50 (HOP-18): 2720 nM (inactive)
- GI50 (SF-539): 1490 nM (inactive)
- GI50 (EKVX): 79.2 nM (active)
- GI50 (NCI-H226): 1190 nM (inactive)
- GI50 (OVCAR-8): 10 nM (active)
- GI50 (SNB-75): 4860 nM (inactive)
- GI50 (SF-268): 889 nM (active)
- GI50 (UACC-257): < 14 nM (active)
- GI50 (COLO 205): 10 nM (active)
- GI50 (HCT-15): 10 nM
- GI50 (NCI-H23): 10 nM (active)
- GI50 (T47D): 1.6 nM (active)
- GI50 (SR): 11 nM (active)
- GI50 (MDA-MB-435): 1490 nM (inactive)
- GI50 (HL-60): 10 nM (active)
- GI50 (RXF 393): 465 nM (active)
- GI50 (SK-MEL-2): 262 nM (active)
- GI50 (HT-29): 115 nM (active)
- GI50 (CCRF-CEM): 10 nM (active)
- GI50 (KM-20L2): < 24.8 nM (active)
- GI50 (DLD-1): 10 nM (active)
- GI50 (OVCAR-3): < 57 nM (active)
- GI50 (A498): 2150 nM (inactive)
- GI50 (PC-3): 9.75 nM (active)
- GI50 (KM12): 161 nM (active)
- GI50 (MCF7): 10 nM (active)
- GI50 (OVCAR-5): 69 nM (active)
